Measured values published in US20160129077A1, “Use of recombinant ganoderma immunoregulatory protein (rLZ-8) in preparation of drug for treating melanoma” (priority 2013, published 2016).
Read-outs that look alike come from different tables or passages of the source. Marks after values point to notes of the source that are not given here.

What was measured:
metastatic melanoma = details: immune therapy; cited from earlier work
B16-F10 lung metastases = test: B16-F10 melanoma lung metastasis model (tail vein injection) in Kunming mice; format: in vivo; details: DTIC 2.5 mg/kg
Text: DMEM, fetal bovine serum, PBS, trypsin-EDTA, DMSO, Tris-HCl buffer with pH 7.6 for rinsing, 0.05% trypsin, rLZ-8, and DTIC.
After the mice were put to death, lungs of the dead mice were dissected out and the number of black spots on surfaces of the lungs, formed by an aggregation of metastasis cell, was counted, so as to calculate the inhibition rate of the drug against the growth of the lung metastasis as: inhibition rate=(an average metastasis number of the negative contrast group−an average metastasis number of the drug administrated group)/the average metastasis number of the negative contrast group×100%. A time and the number of the dead mouse in each experiment group were recorded in detail, especially during administrating the drug continuously, until the negative contrast group was completely dead; and then, the survival states of the mice in the experiment groups and the contrast groups were analyzed. A survival rate was calculated according to the number of the dead mice in the other groups when all the mice of the negative contrast group were dead, based on a formula that survival rate=(a total number of the mice−the number of the dead mice)/the total number of the mice.

[1] = DTIC 2.5 mg/kg tail i.v., administration for 28 days
[2] = DTIC 2.5 mg/kg, administration for 56 days
[3] = DTIC 2.5 mg/kg, dead mice/animal number

Procedure for B16F10 orthotopic tumor: The mice were transplanted with a melanoma cells line B16-F10.
The mice melanoma cells B16-F10 were cultured in the DMEM containing 10% fetal bovine serum, at 37° C. in the CO2 thermostat incubator. 200 μl of B16-F10 cell suspension (containing 1×10^7 cells) was slowly subcutaneously injected into a dorsal-ventral side of the mouse through 1 ml syringe, so as to establish a model of mice transplanted with tumors. […] The rLZ-8 was injected once per day; the DTIC was continuously tail-intravenously injected for 5 days and injected for a second time after 3 weeks. During the experiment, living states of the mice were observed; the mice were weighed once every 7 days; blood samples were taken from tail veins of the mice every 2 weeks; volumes of the tumors, subcutaneously injected into the mice, were measured every 2 days; for each group, the tumors were dissected at an end of the experiment and weighed on the balance, with weights recorded. According to a formula that a tumor growth inhibition rate=(an average weight of the tumors of the physiological saline group−an average weight of the tumors of the drug administrated groups)/the average weight of the tumors of the physiological saline group, the inhibition rate of the rLZ-8 upon the growth of the orthotopic tumor was calculated.

Compound	Positive reaction rate (metastatic melanoma)	Tumor volume (B16F10 orthotopic tumor; [1])	Tumor weight (B16F10 orthotopic tumor; [1])	Tumor growth inhibition rate (B16F10 orthotopic tumor; DTIC 2.5 mg/kg, administration for 28 days)	Tumor growth inhibition rate (B16F10 orthotopic tumor; [2])	Tumor volume (B16F10 orthotopic tumor; [2])	Tumor weight (B16F10 orthotopic tumor; [2])	Mortality rate (administration for 28 days) (B16F10 orthotopic tumor; [3])	Mortality rate (administration for 56 days) (B16F10 orthotopic tumor; [3])	Body leukocyte number (B16F10 orthotopic tumor; tumor-bearing mice, tail vein blood, anti-tumor treatment experiment (28/56 days))	Survival rate when all mice of the negative contrast group were dead (B16-F10 lung metastases; 87th / 95th day after injecting the tumors)	Tumor metastases inhibition rate (B16-F10 lung metastases; administration for 28 days)	Tumor metastases inhibition rate (B16-F10 lung metastases; administration for 56 days)
ipilimumab: anti-CTLA-4 antibody, immune therapy for metastatic melanoma	about 10.9%												
CN(C)/N=N/c1[nH]cnc1C(N)=O [DTIC, Dacarbazine, reference compound]		0.19 ± 0.09** mm^3	0.23 ± 0.12 g	81.26 ± 0.27^ %	64.42 ± 0.41^ %	0.73 ± 0.21* mm^3	0.87 ± 0.26 g	0/10	4/10	greatly decreased the body leukocyte number	10%	32.04±1.27%	58.43 ± 3.21%
